Data set [1] can be described thus: in vivo. As to conditions: mouse.
Data set [2] in a line: solubility in buffer solution. Format: physicochemical. As to conditions: pH 7.5, aqueous buffer. Here is the method: Said solubilities are given in g. of rifamycin % ml. of buffer solution (pH=7,5 and t=22° C.). DA means desacetyl.

Molecules are shown by their SMILES. Values after ≈ are worked out from the molar mass of the structure shown. Where two headings read alike, the source gives them in different places.

Eleven compounds from US4188321A, “25-Desacetyl rifamycins” (Gruppo Lepetit S.p.A., priority 1966, dated 1980) can be followed below.

Usually LD50 stands for the dose expected to kill half of the subjects tested. A low value points to a more toxic substance. Broadly, the solubility is how much of the substance goes into solution per volume.

In turn, `COC1C=COC2(C)Oc3c(C)c(O)c4c(O)c(c(C=O)c(O)c4c3C2=O)NC(=O)C(C)=CC=CC(C)C(O)C(C)C(O)C(C)C(O)C1C` (stereo not shown) [25-DA-3-formyl-rifamycin SV] yielded an LD50 in data set [1] (ip, acute toxicity, mice) of 550 mg/kg. In data set [2] (buffer), this compound registered a solubility of 34300 µg/mL (≈ 50200 µM).
Taken in the same sequence, the figures for `COC1C=COC2(C)Oc3c(C)c(O)c4c(O)c(c(C=NN5CCN(C)CC5)c(O)c4c3C2=O)NC(=O)C(C)=CC=CC(C)C(O)C(C)C(O)C(C)C(O)C1C` (stereo not shown) [25-DA-3-(4-methyl-piperazinyl-iminomethyl)-rifamycin SV] were 850 mg/kg and 7600 µg/mL (≈ 9730 µM).
Regarding `CON=Cc1c2c(O)c3c(O)c(C)c4c(c3c1O)C(=O)C(C)(OC=CC(OC)C(C)C(OC(C)=O)C(C)C(O)C(C)C(O)C(C)C=CC=C(C)C(=O)N2)O4` (stereo not shown) [3-methoximinomethyl-rifamycin SV, reference compound], the concentration in solution in data set [2] (buffer) (solubility) was 150 µg/mL (≈ 199 µM).
As to `CCN(CC)Cc1c2c(O)c3c(O)c(C)c4c(c3c1O)C(=O)C(C)(OC=CC(OC)C(C)C(OC(C)=O)C(C)C(O)C(C)C(O)C(C)C=CC=C(C)C(=O)N2)O4` (stereo not shown) [3-diethylaminomethyl-rifamycin SV, reference compound], the concentration in solution in data set [2] (buffer) (solubility) was 420 µg/mL (≈ 536 µM).
In turn, `CCN(CC)Cc1c2c(O)c3c(O)c(C)c4c(c3c1O)C(=O)C(C)(OC=CC(OC)C(C)C(O)C(C)C(O)C(C)C(O)C(C)C=CC=C(C)C(=O)N2)O4` (stereo not shown) [25-DA-3-diethylaminomethyl-rifamycin SV, 25-desacetyl-3-diethylaminomethyl-rifamycin SV] had a solubility in data set [2] (buffer) of 1260 µg/mL (≈ 1700 µM).
Compound `COC1C=COC2(C)Oc3c(C)c(O)c4c(O)c(c(CN5CCCC5)c(O)c4c3C2=O)NC(=O)C(C)=CC=CC(C)C(O)C(C)C(O)C(C)C(O)C1C` (stereo not shown) [25-DA-3-pyrrolidino-methyl-rifamycin SV] yielded a solubility in data set [2] (buffer) of 2800 µg/mL (≈ 3790 µM).
In data set [1] (ip, acute toxicity, mice), `COC1C=COC2(C)Oc3c(C)c(O)c4c(O)c(c(C=NN5CCN(C)CC5)c(O)c4c3C2=O)NC(=O)C(C)=CC=CC(C)C(O)C(C)C(O)C(C)C(OC(C)=O)C1C` (stereo not shown) [3-(4-methyl-piperazinyl-iminomethyl)-rifamycin SV, reference compound] had an LD50 of 460 mg/kg. In addition, the solubility in data set [2] (buffer solution, pH = 7,5, 22° C., read-out: Solubility) stood at 2850 µg/mL (≈ 3460 µM).
Turning to `CON=Cc1c2c(O)c3c(O)c(C)c4c(c3c1O)C(=O)C(C)(OC=CC(OC)C(C)C(O)C(C)C(O)C(C)C(O)C(C)C=CC=C(C)C(=O)N2)O4` (stereo not shown) [25-DA-3-methoximinomethyl-rifamycin SV], the LD50 in data set [1] (ip, acute toxicity, mice) worked out at 560 mg/kg. The solubility in data set [2] (buffer) was 340 µg/mL (≈ 477 µM).
In data set [2] (buffer), `COC1C=COC2(C)Oc3c(C)c(O)c4c(O)c(c(CN5CCCC5)c(O)c4c3C2=O)NC(=O)C(C)=CC=CC(C)C(O)C(C)C(O)C(C)C(OC(C)=O)C1C` (stereo not shown) [3-pyrrolidino-methyl-rifamycin SV, reference compound] had a solubility of 60 µg/mL (≈ 76.8 µM).
Take `COC1C=COC2(C)Oc3c(C)c(O)c4c(O)c(c(C=O)c(O)c4c3C2=O)NC(=O)C(C)=CC=CC(C)C(O)C(C)C(O)C(C)C(OC(C)=O)C1C` (stereo not shown) [3-formyl-rifamycin SV, reference compound]: in data set [1] (ip, acute toxicity, mice), the LD50 was determined as 300 mg/kg. Besides, in data set [2] (buffer), the concentration in solution (solubility) was 6400 µg/mL (≈ 8820 µM).
In data set [1] (iv), `CCN(CC)C(=O)COc1cc2c(O)c3c(O)c(C)c4c(c13)C(=O)C(C)(OC=CC(OC)C(C)C(O)C(C)C(O)C(C)C(O)C(C)C=CC=C(C)C(=O)N2)O4` (stereo not shown) [25-DA-rifamycin B diethylamide] registered an LD50 of 600 mg/kg.
